Laboratory results taken from patent publication US4285858A, “Vasopressin analogs” (Mt. Sinai School of Medicine of the City University of N.Y., priority 1979, dated 1981).
Where a SMILES comes first, the peptide text is derived from it. Bridges are numbered along the chain shown (N, C = ends). [ ]: non-standard residue; d: D form. Mpa = O=C(O)CCS

Assays:
Factor VIII [1] = assay: Factor VIII classical clotting assay (F-VIII(C)) on blood of dogs after intravenous injection; assay type: in vivo; details: dog, i.v., pre-injection blood = 100%; for F-VIII 30' (c): 30 minutes; for F-VIII 60' (c): 60 minutes; for F-VIII 120' (c): 120 minutes
Experimental: (§1) K., Mulder, J. L., Kidney Internat. 8:292,1975. The increase in Factor VIII after administration were analyzed in male canine citrated plasma. The Factor VIII were estimated by both the classical clotting assay (F-VIII(C)) and by radioimmunoassay (F-VIII(RIA)), both described in […]., Cort, J. H., Cash, J. D., Brit. H. Haematol. 41:437, 1979. […] The intravenous or subcutaneous doses would be in the range of 0.02 to 1.0 μg/kg. The intranasal dose range would be ten times the former dose. […] The compounds from Examples 4-8 were tested by intravenously injecting the compounds in physiological saline into a normal dog which was anesthetized using sodium pentothal. Blood samples were withdrawn from each dog after 30, 60 and 120 minutes and tested. […] The F-VIII factor level was also determined by radioimmunoassay(RIA). The results of these tests are reported in Table I. Desmopressin (10 μg/kg) was used as a reference injection peptide.

Factor VIII [2] = assay: Factor VIII radioimmunoassay (F-VIII(RIA)) on blood of dogs after intravenous injection; assay type: in vivo; details: dog, i.v.; for F-VIII 30' (RIA): 30 minutes; for F-VIII 60' (RIA): 60 minutes; for F-VIII 120' (RIA): 120 minutes
Experimental: as §1

anesthetized rats [3] = assay: Pressor effect by intravenous injection into anesthetized rats; assay type: in vivo, rat; details: for Pressor Potencies (peak): rats, mean
Experimental: (§2) The vasopressin analogs of this invention were tested for antidiuretic and pressor effects by intravenous injection into anesthetized rats using techniques described in Cort, J. H., Schuck, O., Stribrna, J. Skopkova, J., Jost. K., Mulder, J. L., Kidney Internat. 8:292,1975. The increase in Factor VIII after administration were analyzed in male canine citrated plasma. The Factor VIII were estimated by both the classical clotting assay (F-VIII(C)) and by radioimmunoassay (F-VIII(RIA)), both described in Prowse, C. V., Sas, G., Gader, A. M. A., Cort, J. H., Cash, J. D., Brit. H. Haematol. 41:437, 1979. The vasopressin analogs are suitable for administration to mammals by intravenous or subcutaneous injection containing 100 μg to 1 mg peptide/ml. The intravenous or subcutaneous doses would be in the range of 0.02 to 1.0 μg/kg. The intranasal dose range would be ten times the former dose.
(§3) The vasopressin analogs were injected intravenously into normal male dogs anesthetized with sodium pentothal. Blood was withdrawn from each dog after 30, 60 and 120 minutes and analyzed for F-VIII. Rats were also rested for antidiuretic and pressor activity due to the vasopressin analogs of this invention.

anesthetized rats [4] = assay: Antidiuretic effect by intravenous injection into anesthetized rats; assay type: in vivo, rat; details: for Antidiuretic Potencies (peak): rats, mean
Experimental: as §2, §3

F-VIII and PA = details: mammals; literature; cited from earlier work
F-VIII = details: cited from earlier work
[5] = 5 μg/kg, hemophiliac dog plasma = 0%

Molecule	F-VIII 30' (c) (Factor VIII [1]; 10 μg/kg)	F-VIII 60' (c) (Factor VIII [1]; 10 μg/kg)	F-VIII 120' (c) (Factor VIII [1]; 10 μg/kg)	F-VIII 30' (RIA) (Factor VIII [2]; 10 μg/kg)	F-VIII 60' (RIA) (Factor VIII [2]; 10 μg/kg)	F-VIII 120' (RIA) (Factor VIII [2]; 10 μg/kg)	Pressor Potencies (peak) (anesthetized rats [3])	Antidiuretic Potencies (peak) (anesthetized rats [4])	effect on blood levels of F-VIII and PA (F-VIII and PA)	other results
C[C@H](NC(=O)[C@@H](CCCNC(=N)N)NC(=O)[C@@H]1CCCN1C(=O)[C@@H]1CSSCCC(=O)N[C@@H](Cc2ccc(O)cc2)C(=O)N[C@@H](Cc2ccccc2)C(=O)N[C@@H](CCC(N)=O)C(=O)N[C@@H](CC(N)=O)C(=O)N1)C(N)=O [Example 8, (1-desamino-[8-D-Arg, 9-Ala-NH2]arginine)-vasopressin] ([Mpa]YFQNCP[dR]A-NH2; disulfide 1-6)	155%	150%	140%	120%	145%	155%	0.09 IU/mg	2.23 IU/mg	–	–
angiotensin II (DRVYIHPF; Angiotensin-2; UniProt P01019 25-32, looked up) [other pressor substance]	–	–	–	–	–	–	–	–	no effect on increasing F-VIII and PA in blood	–
1-desamino-6-monocarba-[8 -D-Arg]-vasopressin [dCDAVP]	–	–	–	–	–	–	–	–	highly potent and prolonged effects on F-VIII and PA release	–
NC(=O)CC[C@@H]1NC(=O)[C@H](Cc2ccccc2)NC(=O)[C@H](Cc2ccc(O)cc2)NC(=O)[C@@H](N)CSSC[C@@H](C(=O)N2CCC[C@H]2C(=O)N[C@@H](CCCN=C(N)N)C(=O)NCC(N)=O)NC(=O)[C@H](CC(N)=O)NC1=O [vasopressin]	–	–	–	–	–	–	–	–	can increase the blood levels of both PA and F-VIII	–
C[C@@H](NC(=O)[C@H](CCCNC(=N)N)NC(=O)[C@@H]1CCCN1C(=O)[C@@H]1CSSC[C@H](N)C(=O)N[C@@H](Cc2ccc(O)cc2)C(=O)N[C@@H](Cc2ccccc2)C(=O)N[C@@H](CCC(N)=O)C(=O)N[C@@H](CC(N)=O)C(=O)N1)C(N)=O [Example 5, ([9-D-Ala-NH2]-arginine-vasopressin]	225%	128%	115%	115%	110%	115%	0.10 IU/mg	1.2 IU/mg	–	F-VIII 30' (c) (Factor VIII [1]; [5]): 115%; F-VIII 60' (c) (Factor VIII [1]; 5 μg/kg): 120%; F-VIII 120' (c) (Factor VIII [1]; 5 μg/kg): 105%; F-VIII 30' (RIA) (Factor VIII [2]; 5 μg/kg): 110%; F-VIII 60' (RIA) (Factor VIII [2]; 5 μg/kg): 107%; F-VIII 120' (RIA) (Factor VIII [2]; 5 μg/kg): 98%
CC[C@H](C)[C@@H]1NC(=O)[C@H](Cc2ccc(O)cc2)NC(=O)[C@@H](N)CSSC[C@@H](C(=O)N2CCC[C@H]2C(=O)N[C@@H](CC(C)C)C(=O)NCC(N)=O)NC(=O)[C@H](CC(N)=O)NC(=O)[C@H](CCC(N)=O)NC1=O [oxytocin]	–	–	–	–	–	–	–	–	no effect on increasing F-VIII and PA in blood	–
arginine-vasotocin	–	–	–	–	–	–	–	–	far less active	–
CNCC(O)c1ccc(O)c(O)c1 (stereo not drawn) [adrenaline]	–	–	–	–	–	–	–	–	can increase the blood levels of both PA and F-VIII	–
C[C@@H](NC(=O)[C@H](CCCNC(=N)N)NC(=O)[C@@H]1CCCN1C(=O)[C@@H]1CSSCCC(=O)N[C@@H](Cc2ccc(O)cc2)C(=O)N[C@@H](Cc2ccccc2)C(=O)N[C@@H](CCC(N)=O)C(=O)N[C@@H](CC(N)=O)C(=O)N1)C(N)=O [Example 4, 1-Desamino-[9-D-Ala-NH]-arginine-vasopressin] ([Mpa]YFQNCPR[dA]-NH2; disulfide 1-6)	230%	250%	240%	124%	132%	163%	0.15 IU/mg	1.8 IU/mg	–	F-VIII 30' (c) (Factor VIII [1]; [5]): 120%; F-VIII 60' (c) (Factor VIII [1]; 5 μg/kg): 160%; F-VIII 120' (c) (Factor VIII [1]; 5 μg/kg): 170%; F-VIII 30' (RIA) (Factor VIII [2]; 5 μg/kg): 115%; F-VIII 60' (RIA) (Factor VIII [2]; 5 μg/kg): 125%; F-VIII 120' (RIA) (Factor VIII [2]; 5 μg/kg): 130%
NC(=O)CC[C@@H]1NC(=O)[C@H](Cc2ccccc2)NC(=O)[C@H](Cc2ccc(O)cc2)NC(=O)CCSSC[C@@H](C(=O)N2CCC[C@H]2C(=O)N[C@H](CCCN=C(N)N)C(=O)NCC(N)=O)NC(=O)[C@H](CC(N)=O)NC1=O [Desmopressin, 1-desamino-[8-D-ARG]-vasopressin, reference compound]	220%	250%	210%	126%	134%	164%	0.15 IU/mg	1100 IU/mg	highly potent and prolonged effects on F-VIII and PA release	pressor activity (anesthetized rats [3]): less than 0.2 IU/mg; antidiuretic activity (anesthetized rats [4]): more than 1000 IU/mg; effect on low F-VIII levels in patients (F-VIII; hemophilia A and B, von Willebrand's disease, literature): increases low levels of F-VIII toward normal; antidiuretic side effect in clinical use (F-VIII; human, in vivo): undesired water retention by the patients
(1-desamino-6-monocarba[9-D-Ala-NH2 ]-arginine)-vasopressin [Example 7]	240%	255%	266%	125%	165%	180%	0.18 IU/mg	1.9 IU/mg	–	F-VIII 30' (c) (Factor VIII [1]; [5]): 145%; F-VIII 60' (c) (Factor VIII [1]; 5 μg/kg): 190%; F-VIII 120' (c) (Factor VIII [1]; 5 μg/kg): 210%; F-VIII 30' (RIA) (Factor VIII [2]; 5 μg/kg): 140%; F-VIII 60' (RIA) (Factor VIII [2]; 5 μg/kg): 150%; F-VIII 120' (RIA) (Factor VIII [2]; 5 μg/kg): 155%
